Assay results taken from patent publication US20090253706A1, “Methods and Compositions for the Treatment of Rheumatoid Arthritis and Other Inflammatory Diseases” (priority 2008, published 2009).

Columns and labels:
Format in all cases: in vivo
K/BxN mice = assay: Arthritis prevention in K/BxN mice, treatment from weaning, rear ankle thickness
Excerpt: K/BxN TCR transgenic mice express a TCR reactive to a self-peptide derived from the glucose-6-phosphate isomerase (GPI), presented by the MHC class II molecule A^g7 (Korganow et al. (1999) Immunity, 10:451-461; Kouskoff et al. (1996) Cell, 87:811-822; Matsumoto et al. (1999) Science, 286:1732-1735). K/BxN mice spontaneously develop a very aggressive form of arthritis at 3 to 4 weeks of age. […] The arthritis experienced by K/BxN mice is joint specific and allows for the scoring of the arthritis by caliper measurement of ankle thickness (Korganow et al. (1999) Immunity, 10:451-461; Ji et al. (2001) J. Exp. Med., 194:321-330).
Starting at weaning (21 days of age) K/BxN mice were administered 400 mg/kg of 1-methyl-D-tryptophan, 400 mg/kg of 1-methyl-L-tryptophan, or carrier alone b.i.d. (twice daily) by p.o. (oral) gavage.
Mice were given 400 mg/kg/dose (100 μl total volume) of D/L-1MT or D-1MT diluted in METHOCEL™/Tween® (0.5% Tween 80, 0.5% methylcellulose (v/v in water) twice daily by oral gavage (p.o.) using a curved feeding needle as described (Muller et al. (2005) Nat. Med., 11:312-319). 1MT was administered on a b.i.d. schedule, once in the morning and once in the evening. Methotrexate (MTX) was diluted in 0.5% carboxymethyl cellulose and administered by oral gavage at a range of doses 1-25 mg/kg/dose (0.1 cc/20 g mouse) using a curved feeding needle. The mice were given one dose per week as described (Asanuma et al. (2002) Eur. J. Pharmacol., 435:253-258). Control mice were given an equal volume of carrier alone (METHOCEL™/Tween®).
For the arthritis prevention experiments, MTX and/or 1MT treatment was started on the day of weaning (age 21 days). For the treatment of established arthritis, MTX and/or 1MT was administered after the mice had measurable arthritis.
The two rear ankles of MTX, 1MT, MTX+1 MT, or carrier-treated K/BxN mice were measured starting at weaning (3 wk of age) as described (Mandik-Nayak et al. (2002) Proc. Natl. Acad. Sci., 99:14368-14373). Measurement of ankle thickness was made above the footpad axially across the ankle joint using a Fowler Metric Pocket Thickness Gauge.

[1] = system: anti-glucose-6-phosphate isomerase (GPI) Ig; assay: Serum anti-GPI Ig titer in treated K/BxN mice; conditions: FIG. 2A; IgM and IgG isotypes, vs carrier alone
Excerpt: (§1) FIG. 2A is a graph of the titer of serum anti-glucose-6-phosphate isomerase (GPI) IgM and IgG isotypes from K/BxN mice treated with 1-methyl-tryptophan or carrier alone. FIG. 2B is a graph of the number of anti-GPI secreting cells per 10^5 cells present in the spleen, draining lymph nodes (dLN), and non-draining lymph nodes (non-dLN) of K/BxN mice treated with 1-methyl-tryptophan or carrier alone.
(§2) K/BxN mice produce arthritogenic Abs directed against GPI, which develop at high titers because of the preferential help that B cells expressing GPI-specific immunoglobulins receive from GPI-reactive T cells displaying the transgene-encoded TCR.

[2] = system: anti-GPI antibody secreting cells; assay: Anti-GPI antibody secreting cells in spleen and lymph nodes of treated K/BxN mice; conditions: FIG. 2B; spleen, draining lymph nodes (dLN), non-draining lymph nodes (non-dLN), vs carrier alone
Excerpt: as §1, §2

[3] = Example 1, FIG. 1, 400 mg/kg b.i.d. p.o. from 21 days of age, vs carrier alone
[4] = Example 2, FIG. 3, 400 mg/kg p.o. b.i.d. from 21 days, n=5
[5] = FIG. 4, MTX 1, 10 or 25 mg/kg weekly p.o. from 3 weeks of age, increasing amounts

| Compound | degree of arthritis (mean ankle thickness) (K/BxN mice; [3]) | onset of arthritis (K/BxN mice; [3]) | degree of arthritis (mean ankle thickness) (K/BxN mice; [4]) | onset of arthritis (K/BxN mice; [4]) | further results |
| --- | --- | --- | --- | --- | --- |
| Cn1cc(C[C@H](N)C(=O)O)c2ccccc21 [1-methyl-L-tryptophan] | greatly reduced the degree of arthritis | delayed the onset of arthritis | – | – | – |
| Cn1cc(CC(N)C(=O)O)c2ccccc21 [1-methyl-D/L-tryptophan] | – | – | reduced the degree of arthritis | delayed the onset of arthritis | – |
| CN(Cc1cnc2nc(N)nc(N)c2n1)c1ccc(C(=O)N[C@@H](CCC(=O)O)C(=O)O)cc1 [MTX, methotrexate] | – | – | – | – | degree of arthritis (K/BxN mice; [5]): reduced the degree of arthritis; onset of arthritis (K/BxN mice; [5]): inhibited the onset of arthritis; arthritis development (K/BxN mice; FIG. 4 legend, MTX 1, 10 or 25 mg/kg weekly p.o. from 3 weeks of age): dose-dependent inhibition of arthritis development |
| Cn1cc(C[C@H](N)C(=O)O)c2ccccc21 (racemic) [1-MT, 1-methyl-tryptophan] | – | – | – | – | levels of serum anti-GPI Ig [1]: reduced levels of serum anti-GPI Ig; numbers of anti-GPI antibody secreting cells [2]: reduced numbers of anti-GPI antibody secreting cells |
| Cn1cc(C[C@@H](N)C(=O)O)c2ccccc21 [1-methyl-D-tryptophan] | greatly reduced the degree of arthritis | delayed the onset of arthritis | reduced the degree of arthritis | delayed the onset of arthritis | arthritis development (K/BxN mice; FIG. 3 legend, 400 mg/kg p.o. b.i.d. from 21 days): inhibits arthritis development |
